According to US9232796B2, “Herbicidal compositions comprising 4-amino-3-chloro-5-fluoro-6-(4-chloro-2-fluoro-3-methoxyphenyl) pyridine-2-carboxylic acid or a derivative thereof and acetyl-CoA carboxylase (ACCase) inhibitors” (DOW AGROSCIENCES LLC, priority 2012, dated 2016):

Key:
[1] = tested on: SCPJU; test: Example V (second) postemergence foliar-applied ternary mixtures, greenhouse, direct seeded rice weeds; format: in vivo, Schoenoplectus juncoides (Roxb.) Palla
Excerpt: Seeds or nutlets of the desired test plant species were planted in a soil matrix prepared by mixing a sandy loam or loam soil (e.g., 32 percent silt, 23 percent clay, and 45 percent sand, with a pH of about 6.5 and an organic matter content of about 1.9 percent) and calcareous grit in an 80 to 20 ratio. The soil matrix was contained in plastic pots with a volume of 1 quart and a surface area of 83.6 square centimeters (cm^2). When required to ensure good germination and healthy plants, a fungicide treatment and/or other chemical or physical treatment was applied. The plants were grown for 8-22 days in a greenhouse with an approximate 14 hr. photoperiod which was maintained at about 29° C. during the day and 26° C. during the night. Nutrients (Peters Excel® 15-5-15 5-Ca 2-Mg and iron chelate) were applied in the irrigation solution as needed and water was added on a regular basis. Supplemental lighting was provided with overhead metal halide 1000-Watt lamps as necessary. The plants were employed for testing when they reached the first through fourth true leaf stage.
Treatments consisted of the benzyl ester of 4-amino-3-chloro-5-fluoro-6-(4-chloro-2-fluoro-3-methoxy-phenyl)pyridine-2-carboxylic acid (Compound A), formulated as an SC (suspension concentrate), an ACCase inhibitor, and a third herbicidal component, each applied alone and in ternary combination. Forms of compound A were applied on an acid equivalent basis.
The ACCase inhibitor component was applied on an active ingredient basis and included cyhalofop-R-butyl formulated as Clincher® SF, fenoxaprop-p-ethyl formulated as RiceStar® HT, and profoxydim formulated as Aura® 20EC. Other herbicidal components were applied on an active ingredient or acid equivalent basis depending on the compound and included penoxsulam formulated as Grasp® SC, bentazon sodium formulated as Basagran®, triclopyr […] (TEA) salt formulated as Grandstand® R, bispyribac sodium formulated as Regiment® 80WP, imazamox ammonium formulated as Beyond®, benzobicyclon, quinclorac formulated as Facet® 75DF, glyphosate dimethylammonium (DMA) salt formulated as Durango® DMA, glufosinate ammonium formulated as Ignite® 280, fentrazamide formulated as an emulsifiable concentrate (EC), propyrisulfuron formulated as Zeta One®, and indanofan (technical grade material).
(§1) Treatment requirements were calculated based upon the rates being tested, the concentration of active ingredient or acid equivalent in the formulation, and a 12 mL application volume at a rate of 187 L/ha.
For treatments comprised of formulated compounds, measured amounts of compounds were placed individually in 25 mL glass vials and diluted in a volume of 1.25% (v/v) Agri-Dex® crop oil concentrate to obtain 12× stock solutions. […]

[2] = tested on: CYPES; test: Example I postemergence foliar-applied, greenhouse, direct seeded rice weeds; format: in vivo, Cyperus esculentus L.
Excerpt: Seeds or nutlets of the desired test plant species were planted in a soil matrix prepared by mixing a loam or sandy loam soil (e.g., 28.6 percent silt, 18.8 percent clay, and 52.6 percent sand, with a pH of about 5.8 and an organic matter content of about 1.8 percent) and calcareous grit in an 80 to 20 ratio. The soil matrix was contained in plastic pots with a volume of 1 quart and a surface area of 83.6 square centimeters (cm^2). When required to ensure good germination and healthy plants, a fungicide treatment and/or other chemical or physical treatment was applied. The plants were grown for 8-22 days in a greenhouse with an approximate 14 hr. photoperiod which was maintained at about 29° C. during the day and 26° C. during the night. Nutrients (Peters Excel® 15-5-15 5-Ca 2-Mg and iron chelate) were applied in the irrigation solution as needed and water was added on a regular basis. Supplemental lighting was provided with overhead metal halide 1000-Watt lamps as necessary. The plants were employed for testing when they reached the first through fourth true leaf stage.
Treatments consisted of the acid or esters of 4-amino-3-chloro-5-fluoro-6-(4-chloro-2-fluoro-3-methoxy-phenyl)pyridine-2-carboxylic acid (Compound A), each formulated as an SC (suspension concentrate), and various herbicidal components alone and in combination.
Other herbicidal components were applied on an acid equivalent (ae) or active ingredient (ai) basis and included acetyl coA carboxylase (ACCase)-inhibiting herbicides (cyclohexanedione and aryloxyphenoxypropionate chemical classes) cyhalofop-butyl formulated as Clincher® SF (285 gr ai/L EC), diclofop-methyl formulated as Hoelon® 3EC, fenoxaprop-p-ethyl+isoxadifen-ethyl formulated as RiceStar® HT (0.58 lb./gal EC), fenoxaprop-p-ethyl+mefenpyr diethyl formulated as Puma® IEC, metamifop formulated as Metamifop EC, haloxyfop-methyl formulated as Gallant Super®, fluazifop-p-butyl formulated as Fusilade® DX, quizalofop-p-ethyl formulated as Assure® II, profoxydim formulated as Aura® 20EC, clethodim applied as Intensity®, sethoxydim formulated as Poast®, and tralkoxydim formulated as Achieve®.
as §1
For treatments comprised of formulated compounds, measured amounts of compounds were placed individually in 25 mL glass vials and diluted in a volume of 1.25% (v/v) Agri-Dex® crop oil concentrated to obtain 12× stock solutions. […] Application solutions were prepared by adding an appropriate amount of each stock solution (e.g., 1 mL) and diluted to the appropriate final concentrations with the addition of 10 mL of an aqueous mixture of 1.25% (v/v) crop oil concentrate so that the final spray solutions contained 1.25+/−0.05% (v/v) crop oil concentrate.
All stock solutions and applications solutions were visually inspected for compound compatibility prior to application. Spray solutions were applied to the plant material with an overhead Mandel track sprayer equipped with a 8002E nozzles calibrated to deliver 187 L/ha over an application area of 0.503 m^2 at a spray height of 18 to 20 inches (46 to 50 cm) above average plant canopy height. Control plants were sprayed in the same manner with the solvent blank.
The treated plants and control plants were placed in a greenhouse as described above and watered by sub-irrigation to prevent wash-off of the test compounds. After approximately 3 weeks, the condition of the test plants as compared with that of the untreated plants was determined visually and scored on a scale of 0 to 100 percent where 0 corresponds to no injury or growth inhibition and 100 corresponds to complete kill. […]

SMILES	Visual Weed Control (%) - 21 DAA SCPJU Obs ([1]; 35 gai/ha)	Visual Weed Control (%) - 20 DAA CYPES Obs ([2]; 4.38 gae/ha)	Visual Weed Control (%) - 22 DAA CYPES Obs ([2]; 4.38 gae/ha)	Visual Weed Control (%) - 20 DAA CYPES Obs ([2]; 8.75 gae/ha)	Visual Weed Control (%) - 22 DAA CYPES Obs ([2]; 8.75 gae/ha)	Visual Weed Control (%) - 20 DAA CYPES Obs ([2]; 8 gae/ha)	Visual Weed Control (%) - 20 DAA CYPES Obs ([2]; 16 gae/ha)	Visual Weed Control (%) - 20 DAA CYPES Obs ([2]; 17.5 gae/ha)	Visual Weed Control (%) - 21 DAA SCPJU Obs ([1]; 2.19 gae/ha)	Visual Weed Control (%) - 21 DAA SCPJU Obs ([1]; 4.38 gae/ha)
CCCCOC(=O)[C@@H](C)Oc1ccc(Oc2ccc(C#N)cc2F)cc1 [Cyhalofop-butyl, butyl(2R)-2-[4-(4-cyano-2-fluorophenoxy)phenoxy]propanoate, reference compound]	0%	–	–	–	–	–	–	–	–	–
COc1c(Cl)ccc(-c2nc(C(=O)O)c(Cl)c(N)c2F)c1F [Compound A Acid, 4-amino-3-chloro-6-(4-chloro-2-fluoro-3-methoxyphenyl)-5-fluoropyridine-2-carboxylic acid]	–	30%	50%	70%	75%	–	–	–	–	–
COc1c(Cl)ccc(-c2nc(C(=O)OCc3ccccc3)c(Cl)c(N)c2F)c1F [Compound A Benzyl Ester, benzyl ester of 4-amino-3-chloro-5-fluoro-6-(4-chloro-2-fluoro-3-methoxy-phenyl)pyridine-2-carboxylic acid]	–	70%	–	80%	–	0%	75%	95%	65%	96%
